Assay results as given in patent publication US20250032454A1, “KDM1A INHIBITORS FOR THE TREATMENT OF DISEASE” (Imago Biosciences, Inc., priority 2021, published 2025).
Like-named read-outs stand apart in the source and are kept apart here.

Experiments:
[1] = test system: human hematopoietic stem cells (CD34+); assay: HbF induction and red cell maturation in CD34+ hematopoietic stem cells differentiated to red cells over 18 days (HbF by HPLC); type: cell-based; settings: for concentration that inhibits/arrests red cell maturation: co-culture from Day 7, harvest Day 18; for concentration that induces HbF: co-culture from Day 7, harvest Day 18, total HbF by HPLC
Experimental: In an in vitro assay system, human hematopoietic stem cells (CD34^+) from a single donor are cultured to differentiate into red cells over the course of 18 days using standard culture methods with eythrogenic growth factors. Three test articles were co-cultured beginning on Day 7: the compound described in Example 11SS, a reversible inhibitor of LSD1; 4-(2-(4-aminopiperidin-1-yl)-5-(4-methoxyphenyl)-1-methyl-6-oxo-1,6-dihydropyrimidin-4-yl)-2-fluorobenzonitrile, a potent reversible inhibitor of LSD1; and 2-(((trans)-2-(4-(benzyloxy)phenyl)cyclopropyl)amino)-1-(4-methylpiperazin-1-yl) ethanone dihydrochloride (RN-1), a commercially available potent […] inhibitor of LSD1. Cells were harvested at Day 18 and total HbF was assayed by HPLC, e.g., using a C20 reverse phase column. 4-(2-(4-aminopiperidin-1-yl)-5-(4-methoxyphenyl)-1-methyl-6-oxo-1,6-dihydropyrimidin-4-yl)-2-fluorobenzonitrile and RN-1 both induce HbF at 3 nM but inhibit red cell maturation at 10 nM.

LSD1 = LSD1 (Homo sapiens, UniProt O60341); assay: LSD1 fluorescence coupling enzyme assay (HRP/Amplex Red, H3(1-21)K4me2 peptide), 10-dose IC50; type: biochemical; settings: 10 μM histone H3(1-21)K4me2 peptide substrate, 3-fold serial dilution from 100 μM
Summary of the method: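 Fluorescence coupled assay: LSD1 demethylation of 10 μM H3(1-21)K4me2 peptide produces FAD-dependent H2O2, detected via HRP/Amplex Red as resorufin (Ex/Em 535/590 nm). IC50 from 10 doses, 3-fold serial dilution from 100 μM, in duplicate.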

MV4;11 cells = assay: Cell Titer-Glo cell growth inhibition in MV4;11 cell line (Day 5 / Day 10); type: cell-based
Summary of the method: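 Cells seeded at 3750/well and treated with a 10-point, 4-fold dose curve from 0 to 50 µM; ATP-based luminescence viability read at Day 5. A portion is reseeded into fresh compound and media for 5 more days, read at Day 10; IC50 derived from luminescence.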

CN1CCN(C(=O)CN[C@@H]2C[C@H]2c2ccc(OCc3ccccc3)cc2)CC1.Cl.Cl (relative stereo) [RN-1, 2-(((trans)-2-(4-(benzyloxy)phenyl)cyclopropyl)amino)-1-(4-methylpiperazin-1-yl) ethanone dihydrochloride, reference compound]
concentration that inhibits/arrests red cell maturation [1]: 10 nM
concentration that induces HbF [1]: 3 nM

COc1ccc(-c2c(-c3ccc(C#N)c(F)c3)nc(N3CCC(N)CC3)n(C)c2=O)cc1 [4-(2-(4-aminopiperidin-1-yl)-5-(4-methoxyphenyl)-1-methyl-6-oxo-1,6-dihydropyrimidin-4-yl)-2-fluorobenzonitrile]
concentration that inhibits/arrests red cell maturation [1]: 10 nM
concentration that induces HbF [1]: 3 nM

COc1ccc(-n2nc(NC[C@H]3CCC[C@H](N)C3)cc2-c2ccc(C#N)c(F)c2)cc1 [Example 11SS, 4-(3-((((1S,3S)-3-aminocyclohexyl)methyl)amino)-1-(4-methoxyphenyl)-1H-pyrazol-5-yl)-2-fluorobenzonitrile]
IC50 (LSD1): < 500 nM
IC50 (MV4;11 cells; Homo sapiens, MV4-11, 120 h, Day 5, read-out: Cell Titer-Glo IC50 (5 d)): 500 to 1000 nM
IC50 (MV4;11 cells; Homo sapiens, MV4-11, 240 h, Day 10, read-out: Cell Titer-Glo IC50 (10 d)): < 500 nM
concentration that inhibits/arrests red cell maturation [1]: 300 nM
concentration that induces HbF [1]: a higher concentration

(S)-4-(3-(3-aminopiperidin-1-yl)-1-(p-tolyl)-1H-pyrazol-5-yl)-2-fluorobenzonitrile/(S)-4-(5-(3-aminopiperidin-1-yl)-1-(p-tolyl)-1H-pyrazol-3-yl)-2-fluorobenzonitrile [Example 39]
IC50 (LSD1): < 500 nM
IC50 (MV4;11 cells; Day 5, read-out: Cell Titer-Glo IC50 (5 d)): 1000 to 10000 nM
